Test results reported in paper PMC4111603 (PLoS ONE, 2014).
Read-outs that look alike come from different tables or passages of the source.

What was measured:
[1] = test system: fatty acid amide hydrolase (FAAH); details: cited from earlier work
COX-2 [2] = details: read-out: IC50, 2-AG oxygenation; cited from earlier work
[3] = cited from earlier work; for urinary recovery: 24 h after administration of 400 mg of ibuprofen
[4] = cited from earlier work
rat brain FAAH = molecular target: T1, rat brain FAAH (Rattus norvegicus, UniProt P97612); assay: FAAH hydrolysis of [3H]AEA in rat brain homogenates; format: biochemical; details: 0.5 µM AEA; for inhibition at 1000 µM: read-out: % inhibition of [3H]AEA hydrolysis @ 1000 µM, 1000 µM compound
T1 construct: FAAH activity was quantified by measuring hydrolysis of tritium labelled AEA in rat brain homogenates; from tissue; host or cells: rat brain (minus cerebella), Wistar or Sprague-Dawley, washed membrane pellets
T1 sequence (P97612 1-579): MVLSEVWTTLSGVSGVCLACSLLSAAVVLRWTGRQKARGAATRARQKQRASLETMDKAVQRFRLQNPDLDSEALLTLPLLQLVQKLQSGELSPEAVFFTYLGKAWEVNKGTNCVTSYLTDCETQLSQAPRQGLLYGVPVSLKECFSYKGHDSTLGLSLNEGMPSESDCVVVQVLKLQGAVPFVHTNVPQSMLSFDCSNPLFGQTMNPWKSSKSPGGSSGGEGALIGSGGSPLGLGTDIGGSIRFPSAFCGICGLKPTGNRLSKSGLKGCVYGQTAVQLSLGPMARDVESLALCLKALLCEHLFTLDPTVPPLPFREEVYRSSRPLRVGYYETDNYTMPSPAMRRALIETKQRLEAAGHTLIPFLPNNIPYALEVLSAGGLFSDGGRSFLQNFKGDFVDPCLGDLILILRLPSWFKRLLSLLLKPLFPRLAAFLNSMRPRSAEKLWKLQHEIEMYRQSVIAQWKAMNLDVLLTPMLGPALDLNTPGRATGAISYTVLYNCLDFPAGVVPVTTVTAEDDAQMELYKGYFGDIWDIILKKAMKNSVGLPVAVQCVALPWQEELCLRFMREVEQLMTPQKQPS
Protocol: Brains (minus cerebella) from adult Wistar or Sprague-Dawley stored at −80°C were thawed, weighed and homogenized in cold buffer (20 mM HEPES, 1 mM MgCl2 pH 7.0). Homogenates were centrifuged at 35,000 g at 4°C for 20 min and the pellet was resuspended in homogenization buffer (repeated twice) before being incubated at 37°C for 15 min to degrade any endogenous substrate that might interfere with the FAAH assay. Following centrifugation, the pellets were resuspended in cold buffer (50 mM Tris-HCl, 1 mM EDTA, 3 mM MgCl2, pH 7.4). The protein concentration of each homogenates was determined according to the Bradford assay after which the samples were frozen in aliquots at −80°C until used for FAAH assay. Ethical permission for the animal experiments was obtained from the local animal research ethical committee (Umeå Ethical Committee for Animal Research, Umeå, Sweden).
The assay was performed according to Boldrup et al.. Homogenates (1 µg protein per assay) diluted in 10 mM Tris-HCl, 1 mM EDTA, pH 7.4 or pH 5.1 were mixed with test substance dissolved in DMSO (total concentration in assay 5%) at an ambient temperature of 4°C. Reactions were initiated by addition of AEA-[^3H] (assay concentration 0.5 µM) in 10 mM Tris-HCl, 1 mM EDTA, pH 7.4 containing 10 mg ml^−1 fatty acid-free bovine serum and incubation at 37°C which was allowed to proceed for 10 min. […] Blank samples contained buffer instead of homogenate and DMSO (5%). The assay volume of each sample was 200 µl. The pH values given in the text were determined by measurement at 37°C of scaled-up mixtures of homogenization and assay buffers. The reaction was terminated by addition of 400 µl activated charcoal (80 µl activated charcoal +320 µl 0.5 M HCl) and placement of samples on ice. Samples were kept in room temperature for 45–60 min before being centrifuged at 2500 rpm for 10 min. Aliquots (200 µl) of the supernatant was analyzed for tritium content by liquid scintillation with quench correction.
(§1) FAAH inhibition was calculated using log(inhibitor) vs. response with variable slope (four parameters) algorithm in the GraphPad Prism computer program (GraphPad Software Inc., San Diego, CA. USA). […] The two curves were compared by Akaike’s informative criteria and the best fit was chosen. Initial COX activities were calculated as the change in oxygen tension between 10 and 30 seconds after addition of enzyme.

Ovine COX-1 = molecular target: T2, Ovine COX-1 (Ovis aries, UniProt P05979); assay: COX-1 oxygenation of arachidonic acid, oxygen electrode; format: biochemical; details: for COX-1 activity (% of control): 10 µM AA, initial activity 10-30 s, mean ± s.e.m., n = 3; for inhibition at 300 µM: 300 µM compound, read-out: inhibition of COX-1-catalysed oxygenation of arachidonic acid
T2 construct: purchased Cayman Chemical Co. 60100
T2 sequence (P05979 25-600): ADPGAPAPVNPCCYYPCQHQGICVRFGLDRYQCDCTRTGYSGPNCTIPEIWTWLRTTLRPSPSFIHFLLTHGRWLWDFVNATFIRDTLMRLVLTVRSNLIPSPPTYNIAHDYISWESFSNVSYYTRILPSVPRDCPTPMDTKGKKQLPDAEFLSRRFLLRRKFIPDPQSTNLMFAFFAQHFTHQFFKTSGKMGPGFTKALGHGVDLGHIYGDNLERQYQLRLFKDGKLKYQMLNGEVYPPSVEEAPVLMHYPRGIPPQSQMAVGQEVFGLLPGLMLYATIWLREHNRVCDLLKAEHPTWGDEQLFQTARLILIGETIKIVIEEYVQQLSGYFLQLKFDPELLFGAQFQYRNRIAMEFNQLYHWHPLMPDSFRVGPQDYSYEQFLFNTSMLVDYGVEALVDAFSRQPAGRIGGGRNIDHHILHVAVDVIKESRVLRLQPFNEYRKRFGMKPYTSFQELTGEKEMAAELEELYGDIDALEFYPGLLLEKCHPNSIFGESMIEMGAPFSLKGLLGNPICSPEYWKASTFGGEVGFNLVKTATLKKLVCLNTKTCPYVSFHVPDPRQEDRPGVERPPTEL
Protocol: (§2) The assay was performed according to Meade et al. with minor modifications using an oxygen electrode chamber with integral stirring (Oxygraph System, Hansatech Instruments, King’s Lynn, U.K.). The electrode was calibrated to ambient temperature and air pressure. Samples were prepared in 0.1 M Tris-HCl buffer pH 7.4 containing 1 µM haematin, 2 mM phenol, 5 mM EDTA, 10 µM substrate (AA or 2-AG) (final assay volume was 2 ml). After addition of test substance dissolved in DMSO (final assay concentration 1%) a baseline was established for 5 min before initiation of reaction by addition of 200 units COX-1 or COX-2. Change in oxygen consumption was monitored for approximately 5 min.
as §1

COX-2 [5] = details: read-out: IC50, AA oxygenation by COX-2; cited from earlier work
COX-1 = test system: COX-1; parameters: method as in PMID 24120370; details: read-out: IC50, AA oxygenation by COX-1; cited from earlier work
human recombinant COX-2 [6] = molecular target: T3, human recombinant COX-2 (Homo sapiens, UniProt P35354); assay: COX-2 oxygenation of 2-AG, oxygen electrode; format: biochemical; details: for COX-2 activity (% of control): substrate 2-AG 10 µM, initial activity 10-30 s, n = 3
T3 construct: purchased Cayman Chemical Co. 60122
T3 sequence (P35354 18-604): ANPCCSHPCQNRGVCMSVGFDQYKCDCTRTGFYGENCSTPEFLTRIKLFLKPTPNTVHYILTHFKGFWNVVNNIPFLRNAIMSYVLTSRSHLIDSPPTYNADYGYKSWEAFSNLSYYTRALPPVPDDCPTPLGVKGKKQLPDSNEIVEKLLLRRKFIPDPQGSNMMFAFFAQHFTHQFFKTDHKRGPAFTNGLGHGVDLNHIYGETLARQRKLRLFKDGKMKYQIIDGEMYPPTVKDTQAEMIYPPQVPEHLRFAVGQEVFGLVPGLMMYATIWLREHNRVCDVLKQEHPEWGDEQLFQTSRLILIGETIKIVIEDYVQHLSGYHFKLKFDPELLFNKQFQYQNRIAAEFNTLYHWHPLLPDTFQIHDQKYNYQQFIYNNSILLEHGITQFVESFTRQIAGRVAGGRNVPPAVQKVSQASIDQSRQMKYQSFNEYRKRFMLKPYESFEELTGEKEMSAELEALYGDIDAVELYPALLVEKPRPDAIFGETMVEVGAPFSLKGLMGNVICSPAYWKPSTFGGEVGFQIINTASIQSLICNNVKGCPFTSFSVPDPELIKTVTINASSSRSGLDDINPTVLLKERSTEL
Protocol: as §2, §1

human recombinant COX-2 [7] = molecular target: T3, human recombinant COX-2; assay: COX-2 oxygenation of arachidonic acid, oxygen electrode; format: biochemical; details: for COX-2 activity (% of control): substrate AA 10 µM, initial activity 10-30 s, n = 3
Protocol: as §2, §1

µ-opoid receptors = details: cited from earlier work
NAAA = test system: NAAA; parameters: method as in PMID 16154384; details: cited from earlier work
FAAH = test system: FAAH; parameters: method as in PMID 16997568; details: pH 6 and 8; rat brain homogenates; cited from earlier work
[8] = pH 6.0, read-out: IC50, inhibition of [3H]AEA hydrolysis (converted)
[9] = pH 6.0, read-out: pI50, inhibition of [3H]AEA hydrolysis (converted)

Cc1cccnc1NC(=O)C(C)c1ccc(CC(C)C)cc1 (stereo not drawn)
potency as FAAH inhibitor at pH 6 versus pH 8 [1]: slightly less potent inhibitor of FAAH at pH 6 than at pH 8

CC(C(=O)O)c1ccc(-c2ccccc2)c(F)c1 (racemic) [Flurbiprofen, (±)-2-flouro-α-methyl(1,1′-biphenyl)-4-acetic acid, reference compound]
share of the dose recovered in the urine ([3]; flurbiprofen 50 mg a day for 10 consecutive days): 23%
IC50 (rat brain FAAH; [8]): 28 µM
IC50 (rat brain FAAH; [9]): 27.5 µM
IC50 (rat brain FAAH; pH 7.3, read-out: IC50, inhibition of [3H]AEA hydrolysis (converted)): 51 µM
IC50 (rat brain FAAH; pH 7.3, read-out: pI50, inhibition of [3H]AEA hydrolysis (converted)): 51.3 µM
inhibition of COX-1 (Ovine COX-1; 30 µM compound): Complete inhibition

CC(C)Cc1ccc(C(C)C(=O)O)cc1 (racemic) [Ibuprofen, (±)-2-(4-Isobutylphenyl)propanoic acid]
urinary recovery [3]: 11%
peak plasma concentration ([4]; 200 mg single doses of two different ibuprofen preparations): 110 to 150 µM
IC50 ([1]; read-out: potency, inhibition of AEA hydrolysis by FAAH): 270 µM

CC(C(=O)O)c1ccc(C(O)C(C)C)cc1 (stereo not drawn) [1′-OH-Ibuprofen, 2-[4-(1-hydroxy-2-methylpropyl)phenyl]propionic acid]
COX-2 activity (% of control) (human recombinant COX-2 [6]; 100 µM NSAID): 103±22 % of control
COX-2 activity (% of control) (human recombinant COX-2 [6]; 300 µM NSAID): 108±15 % of control
IC50 (rat brain FAAH; [8]): 340 µM
IC50 (rat brain FAAH; [9]): 339 µM
inhibition at 1000 µM (rat brain FAAH; pH 7.3): 47 ± 0.8%
COX-1 activity (% of control) (Ovine COX-1; 100 µM NSAID): 112±21 % of control
COX-1 activity (% of control) (Ovine COX-1; 300 µM NSAID): 81±21 % of control
inhibition at 300 µM (Ovine COX-1): 19%
COX-1 activity (% of control) (Ovine COX-1; 1000 µM NSAID): 102±18 % of control
COX-2 activity (% of control) (human recombinant COX-2 [7]; 100 µM NSAID): 91±8 % of control
COX-2 activity (% of control) (human recombinant COX-2 [7]; 300 µM NSAID): 59±13 % of control

CN1CC[C@]23c4c5ccc(O)c4O[C@H]2[C@@H](O[C@@H]2O[C@H](C(=O)O)[C@@H](O)[C@H](O)[C@H]2O)C=C[C@H]3[C@H]1C5 [6-glucuronide metabolite of morphine]
potency relative to parent drug (morphine) (µ-opoid receptors): 2–4 times

CC(Cc1ccc(C(C)C(=O)O)cc1)C(=O)O (stereo not drawn) [Carboxyibuprofen, 2-[4-(2-carboxypropyl)phenyl]propionic acid]
COX-2 activity (% of control) (human recombinant COX-2 [6]; 100 µM NSAID): 105±19 % of control
COX-2 activity (% of control) (human recombinant COX-2 [6]; 300 µM NSAID): 132±17 % of control
effect on rate of oxygenation of 2-AG (human recombinant COX-2 [6]; 300 µM compound, Fig. S1): appeared to increase the rate of oxygenation
urinary recovery [3]: 40%
IC50 (rat brain FAAH; [8]): 410 µM
IC50 (rat brain FAAH; [9]): 417 µM
inhibition at 1000 µM (rat brain FAAH; pH 7.3): 31 ± 4%
inhibition at 300 µM (Ovine COX-1): 4%
effect on rate of oxygenation of AA (human recombinant COX-2 [7]; 10 µM compound, Fig. S2, preliminary, two experiments): appeared to increase the rate of oxygenation
COX-2 activity (% of control) (human recombinant COX-2 [7]; 100 µM NSAID): 132±16 % of control
COX-2 activity (% of control) (human recombinant COX-2 [7]; 300 µM NSAID): 139±41 % of control

NC(=O)c1cccc(-c2cccc(OC(=O)NC3CCCCC3)c2)c1 [URB597]
activity towards NAAA (NAAA): lacks activity
inhibition of AEA hydrolysis (FAAH): completely inhibits
